Where a name gives a salt, the structure may show the parent alone.
Experiments:
[1] = test system: Bacillus subtilis (ATCC 6633); experiment: Agar disk bioassay (zone of inhibition) of antibiotics released from the crosslinked bioelastomer constructs; format: cell-based; details: for active compound concentration corresponding to zone of inhibition: day 1 supernatant; for active compound concentration corresponding to zone of inhibition / active drug concentration corresponding to zone of inhibition: vs serial dilutions
Procedure: To determine if the eluted antibiotics remained active, bioassays were performed in triplicate, for a subset of samples, using Bacillus subtilis (ATCC 6633) for both vancomycin and cefazolin. Vancomycin supernatants from days 1, 7, 14, 21, and 28, as well as a sample of the final construct (following resolubilization) were tested against vancomycin serial dilutions of 5 mg/ml, 1 mg/ml, 0.5 mg/ml, 0.1 mg/ml, and 0.05 mg/ml. […] Bacterial suspensions were prepared in tryptic soy broth following the recommendations set forth by the manufacturer for Bacillus subtilis (Lyfo Disk, MicroBiologics, St. Cloud, Minn.). After 30 minutes of incubation at 37° C. the suspensions were swabbed onto petri dishes containing Mueller-Hinton agar. Twenty microliters of each supernatant were pipetted onto 6 mm filter paper disks applied to the surface of the agar. The plates were incubated for 18 hours at 37° C. After incubation, zones of inhibition were measured twice in two randomly chosen directions. Supernatants from ELP control samples were tested in this same manner.

[2] = Antibiotic release from the crosslinked bioelastomer constructs into PBS at 37° C, UV/Vis of supernatant; format: physicochemical; details: ELP 150 mg/ml
[3] = reported value, organism not stated; cited from earlier work

Row | Structure (SMILES) | active compound concentration corresponding to zone of inhibition ([1]; cefazolin released from crosslinked construct) | active drug concentration corresponding to zone of inhibition ([1]; cefazolin released from crosslinked construct, day 3 supernatant) | zone of bacterial growth inhibition, biological activity of released cefazolin ([1]; supernatants of days 1-4 and final homogenized construct, all samples tested) | time in which the majority of cefazolin release took place ([2]; cefazolin-loaded ELP constructs) | minimal inhibitory concentration [3] | zone of bacterial growth inhibition, biological activity of released vancomycin ([1]; all supernatants tested (days 1, 7, 14, 21, 28) and homogenized final sample) | active compound concentration corresponding to zone of inhibition ([1]; vancomycin released from crosslinked construct) | active drug concentration corresponding to zone of inhibition ([1]; vancomycin released from crosslinked construct, day 7 supernatant) | time period over which the ELP constructs release antibiotic ([2]; cefazolin-loaded ELP constructs, PBS 37° C, supernatant replaced days 1-10) | time period over which the crosslinked ELP constructs release vancomycin ([2]; vancomycin-loaded crosslinked ELP constructs, PBS 37° C, supernatant replaced)
1 | Cc1nnc(SCC2=C(C(=O)[O-])N3C(=O)[C@@H](NC(=O)Cn4cnnn4)[C@H]3SC2)s1.[Na+] [cefazolin, cefazolin sodium salt] | ~2 mg/mL | less than 0.5 mg/ml | biologically active | initial two or three days | 0.25 to 1 µg/mL |  |  |  |  | 
2 | CN[C@H](CC(C)C)C(=O)N[C@H]1C(=O)N[C@@H](CC(N)=O)C(=O)N[C@H]2C(=O)N[C@H]3C(=O)N[C@H](C(=O)N[C@H](C(=O)O)c4cc(O)cc(O)c4-c4cc3ccc4O)[C@H](O)c3ccc(c(Cl)c3)Oc3cc2cc(c3O[C@@H]2O[C@H](CO)[C@@H](O)[C@H](O)[C@H]2O[C@H]2C[C@](C)(N)[C@H](O)[C@H](C)O2)Oc2ccc(cc2Cl)[C@H]1O [vancomycin, vancomycin hydrochloride] |  |  |  |  | 1.5 to 3 µg/mL | retained biological activity | ~1 mg/mL | less than 0.1 mg/ml | ≥ 10 days | ≥ 28 days

Source: patent publication US20090098110A1, “INJECTABLE FORMS OF SOLID-FORMING CROSSLINKED BIOELASTIC BIOPOLYMERS FOR LOCAL DRUG DELIVERY” (Duke University, priority 2007, published 2009)
